Measurements published in ChEMBL document CHEMBL2034892, “The relevance of higher plants in lead compound discovery programs” (J Nat Prod, 2011).
≈ marks a conversion by molar mass, not a printed value.

Key:
[1] = system: HT-29; assay: Cytotoxicity against human HT-29 cells; assay type: functional; conditions: read-out: ED50 (the source's name)
[2] = target: T1, Taste receptor type 2 member 31 (Homo sapiens, UniProt P59538); assay: Inhibition of human TAS2R31 receptor expressed in HEK293T cells overexpressing chimeric G-protein alpha-subunit; assay type: cell-based, HEK-293T
T1 sequence (P59538 whole entry): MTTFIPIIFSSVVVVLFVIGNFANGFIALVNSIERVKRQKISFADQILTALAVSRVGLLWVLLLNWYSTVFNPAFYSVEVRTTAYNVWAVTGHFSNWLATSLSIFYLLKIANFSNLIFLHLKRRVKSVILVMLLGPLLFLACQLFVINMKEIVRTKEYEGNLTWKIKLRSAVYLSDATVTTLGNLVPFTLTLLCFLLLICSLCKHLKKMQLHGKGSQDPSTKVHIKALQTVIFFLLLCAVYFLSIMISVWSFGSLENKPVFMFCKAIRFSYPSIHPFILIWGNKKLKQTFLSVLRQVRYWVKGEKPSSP

[3] = Inhibition of proteasome; assay type: subcellular
[4] = Oral bioavailability in C57BL/6 mouse; assay type: ADME, organism-based; conditions: in vivo
[5] = Systemic availability in ip dosed C57BL/6 mouse; assay type: ADME, organism-based; conditions: in vivo
[6] = system: P388; assay: Antitumor activity against mouse P388 cells xenografted in mouse assessed as increase in life span at 2 mg/kg, iv dosed twice daily for 5 days
[7] = system: P388; assay: Antitumor activity against mouse P388 cells xenografted in mouse assessed as increase in life span at 2.5 mg/kg, ip dosed daily for 5 days; assay type: functional; conditions: route intraperitoneal
[8] = system: KB; assay: Cytotoxicity against human KB cells; assay type: functional, cell-based

Question: For `CC(C)=CCc1c2c(c(O)c3c1O[C@]14C(=C[C@@H]5C[C@H]1C(C)(C)O[C@@]4(C/C=C(/C)C(=O)O)C5=O)C3=O)C=CC(C)(C)O2`, which EC50 [1] is on record?
Answer: 360 nM

Question: With `COc1cc2c(c(O)c1OC)C(=O)C[C@@H](c1ccc(O)cc1)O2` as the compound, how does the IC50 [2] read?
Answer: 2500 nM

Question: Which IC50 [2] does the source give for `COc1cc([C@@H]2CC(=O)c3c(O)cc(O)cc3O2)ccc1OC(=O)C(C)C` here?
Answer: 2000 nM

Question: For `COc1cc(-c2cc(=O)c3c(O)c(OC)c(O)cc3o2)ccc1O` [JACEOSIDINE], which IC50 [2] is on record?
Answer: 11300 nM

Question: For `O=C1c2c(O)cc(O)cc2O[C@H](c2ccc(O)cc2)[C@H]1c1c(O)cc(O)c2c(=O)cc(-c3ccc(O)c(O)c3)oc12` [MORELLOFLAVONE], which IC50 [3] is on record?
Answer: 1300 nM

Question: With `COc1cc(O)c2c(c1)O[C@H](c1ccc(O)cc1)CC2=O` [SAKURANETIN] as the compound, how does the IC50 [2] read?
Answer: 3600 nM

Question: For `COC(=O)[C@H]1[C@@H](O)[C@@]2(O)c3c(OC)cc(O[C@@H]4O[C@@H]([C@H](O)CO)CO[C@H]4OC)cc3O[C@@]2(c2ccc(OC)cc2)[C@@H]1c1ccccc1` [SILVESTROL], which bioavailability [4] is on record?
Answer: 1.7%

Question: And the bioavailability [5]?
Answer: 100%

Question: What about the T/C [6] of the same compound?
Answer: 129%

Question: What about the T/C [7] of the same compound?
Answer: 150%

Question: With `Oc1ccc([C@H]2c3c(O)cc4c(c3[C@@H]3c5c(O)cc6c(c5[C@H]2[C@@H]3c2ccc(O)cc2)[C@H](c2cc(O)cc(O)c2)[C@@H](c2ccc(O)cc2)O6)[C@@H](c2cc(O)cc(O)c2)[C@H](c2ccc(O)cc2)O4)cc1` [VATDIOSPYROIDOL] as the compound, how does the EC50 [8] read?
Answer: 1 µg/mL (≈ 1.1 µM)
